The results in this text go back to patent US9783505B2, “Substituted diaminopyrimidyl compounds, compositions thereof, and methods of treatment therewith” (Signal Pharmaceuticals, LLC, priority 2013, dated 2017).

For test [1], the target named is T1, His-PKC-theta (Homo sapiens, UniProt Q04759).
T1 construct: His; purchased Invitrogen
Nature of the test: PKC-theta Assay (384-well time resolved fluorescence, IMAP TR-FRET). Type of test: biochemical. To be noted: read-out: Act. Level (IC50 in the PKC-theta Assay). Summed up: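 Enzyme at 142 pM phosphorylated 200 nM Fam-S6 peptide with 10 μM ATP in 50 mM HEPES pH 7.6, 10 mM MgCl2, 1 mM DTT for 2 h at room temperature. Product was detected after overnight incubation with IMAP binding reagent and Tb donor by time-resolved FRET.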

Test [2] has as its target T2, PKC delta (Homo sapiens, UniProt Q05655).
T2 construct: purchased Invitrogen
Nature of the test: PKC delta Assay (384-well time resolved fluorescence, IMAP TR-FRET). Type of test: biochemical. To be noted: selectivity for PKC-theta over PKC-delta. The method, boiled down:
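Phosphorylation of a Fam-labeled S6-derived peptide (200 nM) at 10 μM ATP by 1.5 nM kinase ran 2 hours at room temperature in HEPES pH 7.6 buffer containing MgCl2, DTT, Triton X-100, BSA and EDTA. Detection used IMAP progressive binding with Tb donor TR-FRET after overnight incubation.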
Background: Time-resolved FRET reads energy transfer from a long-lived donor to a nearby acceptor.

T2 sequence (Q05655 whole entry): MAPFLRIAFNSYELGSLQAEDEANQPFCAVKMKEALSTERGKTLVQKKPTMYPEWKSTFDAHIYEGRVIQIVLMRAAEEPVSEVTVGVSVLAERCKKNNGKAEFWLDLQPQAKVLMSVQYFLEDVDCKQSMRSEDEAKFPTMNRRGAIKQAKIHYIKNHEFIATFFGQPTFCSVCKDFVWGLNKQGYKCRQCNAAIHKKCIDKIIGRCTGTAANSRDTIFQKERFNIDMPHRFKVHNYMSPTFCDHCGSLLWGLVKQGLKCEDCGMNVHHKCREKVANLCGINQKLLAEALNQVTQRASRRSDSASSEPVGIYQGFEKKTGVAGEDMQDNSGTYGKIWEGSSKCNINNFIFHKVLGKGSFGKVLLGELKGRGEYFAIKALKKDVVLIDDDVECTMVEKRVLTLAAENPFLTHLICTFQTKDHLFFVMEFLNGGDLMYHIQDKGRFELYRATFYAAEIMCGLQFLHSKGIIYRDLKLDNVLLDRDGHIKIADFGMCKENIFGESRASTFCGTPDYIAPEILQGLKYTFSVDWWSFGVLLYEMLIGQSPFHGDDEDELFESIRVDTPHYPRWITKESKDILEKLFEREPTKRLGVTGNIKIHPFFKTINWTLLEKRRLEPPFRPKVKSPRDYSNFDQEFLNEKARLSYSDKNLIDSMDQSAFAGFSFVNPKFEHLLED
T1 sequence (Q04759 whole entry): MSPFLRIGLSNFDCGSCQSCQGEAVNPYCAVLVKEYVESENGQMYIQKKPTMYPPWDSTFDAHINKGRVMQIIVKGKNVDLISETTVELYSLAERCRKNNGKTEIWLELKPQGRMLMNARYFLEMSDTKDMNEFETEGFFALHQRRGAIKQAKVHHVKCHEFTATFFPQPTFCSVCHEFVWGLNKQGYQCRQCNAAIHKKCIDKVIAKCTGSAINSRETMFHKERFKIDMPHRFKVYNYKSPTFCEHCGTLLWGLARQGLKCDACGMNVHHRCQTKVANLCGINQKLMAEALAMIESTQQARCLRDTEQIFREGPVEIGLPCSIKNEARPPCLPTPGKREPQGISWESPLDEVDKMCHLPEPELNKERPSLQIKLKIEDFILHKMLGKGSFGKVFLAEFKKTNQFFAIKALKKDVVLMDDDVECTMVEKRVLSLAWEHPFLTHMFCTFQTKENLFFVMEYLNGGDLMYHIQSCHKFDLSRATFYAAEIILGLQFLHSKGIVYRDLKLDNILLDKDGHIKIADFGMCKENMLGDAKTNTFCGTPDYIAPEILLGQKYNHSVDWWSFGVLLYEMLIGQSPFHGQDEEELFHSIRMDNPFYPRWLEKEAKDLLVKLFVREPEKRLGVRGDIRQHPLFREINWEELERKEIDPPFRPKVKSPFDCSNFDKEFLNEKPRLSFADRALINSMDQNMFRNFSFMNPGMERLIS

Consider `CC1(C)C[C@H](Nc2nc(NCCc3cn[nH]c3)ncc2C#N)CC[C@@H]1O` [Cmpd 208], for which, in test [1], the IC50 (commonly the concentration that gives 50% inhibition) is 100 to 800 nM. In addition, in test [2], the “Sel. Level (ratio of IC50 PKC-delta/IC50 PKC-theta)” value was “G (selectivity between 5- and 20-fold (selectivity level G))”.
Consider `CC1(C)C[C@H](Nc2nc(NCCc3cccc4cc[nH]c34)ncc2C#N)CCC1O` (stereo partly drawn) [Cmpd 217], for which the IC50 in test [1] fell in the range of 100 to 800 nM. The “Sel. Level (ratio of IC50 PKC-delta/IC50 PKC-theta)” value in test [2] is “G (selectivity between 5- and 20-fold (selectivity level G))”.
For the compound `CC1(C)[C@@H](O)C[C@H]1Nc1nc(NCCc2cc3cc(C#N)ccc3[nH]2)ncc1C#N` [Cmpd 264], the IC50 in test [1] was 100 to 800 nM. In addition, the “Sel. Level (ratio of IC50 PKC-delta/IC50 PKC-theta)” value in test [2] was “G (selectivity between 5- and 20-fold (selectivity level G))”.
Turning to `CC1(C)C[C@H](Nc2nc(NCCc3c[nH]c4ccncc34)ncc2C#N)CC[C@@H]1O` [Cmpd 284], in test [1], the IC50 lay within 2000 to 10000 nM. For the same compound, in test [2], the “Sel. Level (ratio of IC50 PKC-delta/IC50 PKC-theta)” value is on record as “H (selectivity level of 5-fold or less (selectivity level H))”.
For `CC(F)(F)COc1ncncc1CNc1ncc(C#N)c(N[C@@H]2CCC[C@H](O)C2(C)C)n1` [Cmpd 299] the same measures were under 100 nM and “E (selectivity (Sel. Level=ratio of IC50 PKC-delta/IC50 PKC-theta) of >100-fold (selectivity level E))”.
With `CC1(C)[C@@H](O)C[C@H]1Nc1nc(NCCc2ccn[nH]2)ncc1C#N` [Cmpd 245], the IC50 in test [1] was 800 to 2000 nM. Moreover, the “Sel. Level (ratio of IC50 PKC-delta/IC50 PKC-theta)” value in test [2] was “G (selectivity between 5- and 20-fold (selectivity level G))”.
In the case of `Cc1nccnc1CCNc1ncc(C#N)c(N[C@H]2CC[C@@H](C(N)=O)CC2)n1` [Cmpd 321], the IC50 in test [1] fell in the range of 2000 to 10000 nM. Moreover, the “Sel. Level (ratio of IC50 PKC-delta/IC50 PKC-theta)” value in test [2] is “H (selectivity level of 5-fold or less (selectivity level H))”.
On the same counts, the results for `CC1(C)[C@@H](O)C[C@H]1Nc1nc(NCCc2nc3ccccc3o2)ncc1C#N` [Cmpd 242] are 2000 to 10000 nM and “H (selectivity level of 5-fold or less (selectivity level H))”.
On the same counts, the results for `Cc1nc2ccccc2n1CCNc1ncc(C#N)c(N[C@@H]2CC[C@H](O)C(C)(C)C2)n1` [Cmpd 207] are 2000 to 10000 nM and “H (selectivity level of 5-fold or less (selectivity level H))”.
For `CC1(C)C[C@H](Nc2nc(NCCc3cnc(C4CC4)nc3)ncc2C#N)CC[C@@H]1O` [Cmpd 218] the same measures were 2000 to 10000 nM and “H (selectivity level of 5-fold or less (selectivity level H))”.
Regarding `CC1(C)C[C@H](Nc2nc(NCCc3cnccn3)ncc2C#N)CC[C@@H]1O` [Cmpd 279], the IC50 in test [1] lay in the range of 2000 to 10000 nM. The “Sel. Level (ratio of IC50 PKC-delta/IC50 PKC-theta)” value in test [2] is given as “H (selectivity level of 5-fold or less (selectivity level H))”.
For `CC1(C)C(O)C[C@H]1Nc1nc(NCCc2cnccn2)ncc1C#N` (stereo partly drawn) [Cmpd 226] the same measures were 2000 to 10000 nM and “H (selectivity level of 5-fold or less (selectivity level H))”.
As for `Cc1cc(CCNc2ncc(C#N)c(N[C@H]3CC[C@@H](C(N)=O)CC3)n2)ncn1` [Cmpd 319], in test [1], the IC50 lay in the range of 2000 to 10000 nM. The “Sel. Level (ratio of IC50 PKC-delta/IC50 PKC-theta)” value in test [2] is reported as “H (selectivity level of 5-fold or less (selectivity level H))”.
Regarding `CC1(C)[C@H](Nc2nc(NCc3cncnc3OCC(F)F)ncc2C#N)C[C@]1(C)O` [Cmpd 332], the IC50 in test [1] is under 100 nM. Also, in test [2], the “Sel. Level (ratio of IC50 PKC-delta/IC50 PKC-theta)” value is recorded as “E (selectivity (Sel. Level=ratio of IC50 PKC-delta/IC50 PKC-theta) of >100-fold (selectivity level E))”.
Consider `CC1(C)C[C@H](Nc2nc(NCCc3ccn[nH]3)ncc2C#N)CC[C@@H]1O` [Cmpd 216], for which, in test [1], the IC50 lay in the range of 800 to 2000 nM. For the same compound, the “Sel. Level (ratio of IC50 PKC-delta/IC50 PKC-theta)” value in test [2] was “G (selectivity between 5- and 20-fold (selectivity level G))”.
On to `CC(F)(F)COc1ncncc1CNc1ncc(C#N)c(N[C@H]2CCC[C@H](O)C2(C)C)n1` [Cmpd 296], for which the IC50 in test [1] lay within 100 to 800 nM. Also, the “Sel. Level (ratio of IC50 PKC-delta/IC50 PKC-theta)” value in test [2] was “F (selectivity of between 20- and 100-fold (selectivity level F))”.
For `CC1(C)C[C@H](Nc2nc(NCCc3cc(C(F)(F)F)ccn3)ncc2C#N)CC[C@@H]1O` [Cmpd 326], the IC50 in test [1] was 100 to 800 nM. Also, the “Sel. Level (ratio of IC50 PKC-delta/IC50 PKC-theta)” value in test [2] was “G (selectivity between 5- and 20-fold (selectivity level G))”.
For the compound `CC1(C)[C@H](O)CCC[C@@H]1Nc1nc(NCCC2C(=O)Nc3cc(F)ccc32)ncc1C#N` (stereo partly drawn) [Cmpd 311], the IC50 in test [1] was 100 to 800 nM. In test [2], the “Sel. Level (ratio of IC50 PKC-delta/IC50 PKC-theta)” value is “G (selectivity between 5- and 20-fold (selectivity level G))”.
As to `Cc1cc(C(F)(F)F)nn1CCNc1ncc(C#N)c(N[C@@H]2CC[C@H](O)C(C)(C)C2)n1` [Cmpd 210], in test [1], the IC50 is 800 to 2000 nM. Moreover, the “Sel. Level (ratio of IC50 PKC-delta/IC50 PKC-theta)” value in test [2] is “G (selectivity between 5- and 20-fold (selectivity level G))”.
In the case of `CC1(C)[C@@H](O)C[C@H]1Nc1nc(NCCc2cccc3cc[nH]c23)ncc1C#N` [Cmpd 229], the IC50 in test [1] was in the range of 800 to 2000 nM. Moreover, in test [2], the “Sel. Level (ratio of IC50 PKC-delta/IC50 PKC-theta)” value was “G (selectivity between 5- and 20-fold (selectivity level G))”.
Regarding `COc1cccc(CCNc2ncc(C#N)c(N[C@@H]3CC(O)C3(C)C)n2)n1` (stereo partly drawn) [Cmpd 227], the IC50 in test [1] fell in the range of 800 to 2000 nM. Besides, the “Sel. Level (ratio of IC50 PKC-delta/IC50 PKC-theta)” value in test [2] is “G (selectivity between 5- and 20-fold (selectivity level G))”.
